Publication PMC3655251, “Urea Output by L3 Teladorsagia circumcincta and some Properties of Two Urea Producing Enzymes” (Iranian Journal of Parasitology, 2013)

Key:
[1] = tested on: T1, creatine amidinohydrolase; test: coupled urease / glutamate dehydrogenase assay, NADH oxidation at […] nm; assay type: biochemical, Teladorsagia circumcincta; details: L3 homogenate, 100 mM phosphate buffer, 30 °C, no metal added; read-out: apparent K m
T1 construct: native activity in crude homogenate of L3 larvae, not purified; no nematode gene homologue found by the authors

[2] = tested on: T2, arginine amidinohydrolase; test: as above; assay type: biochemical, Teladorsagia circumcincta; details: L3 homogenate, 100 mM phosphate buffer, 30 °C, no metal added; read-out: apparent K m
T2 construct: native enzyme in crude homogenate of L3 larvae, not purified

| Structure (SMILES) | Km [1] [µM] | Km [2] [µM] |
| --- | --- | --- |
| CN(CC(=O)O)C(=N)N [creatine] | 1100 ± 100 |  |
| N=C(N)NCCC[C@H](N)C(=O)O [arginine] |  | 700 ± 200 |
